Reference: patent US10040759B2, “Substituted azetidinyl compounds as GlyT1 inhibitors” (DART NEUROSCIENCE (CAYMAN) LTD., priority 2014, dated 2018)

molecular target: T1, GlyT1 (Homo sapiens, UniProt P48067); experiment: Glycine Transporter 1 (GlyT1) uptake assay, scintillation proximity assay of [14C]-glycine uptake; format: cell-based; settings: [14C]-glycine uptake; read-out: GlyT1 (pIC50) (converted)
T1 construct: expressed in transfected cells
T1 sequence (P48067 1-706): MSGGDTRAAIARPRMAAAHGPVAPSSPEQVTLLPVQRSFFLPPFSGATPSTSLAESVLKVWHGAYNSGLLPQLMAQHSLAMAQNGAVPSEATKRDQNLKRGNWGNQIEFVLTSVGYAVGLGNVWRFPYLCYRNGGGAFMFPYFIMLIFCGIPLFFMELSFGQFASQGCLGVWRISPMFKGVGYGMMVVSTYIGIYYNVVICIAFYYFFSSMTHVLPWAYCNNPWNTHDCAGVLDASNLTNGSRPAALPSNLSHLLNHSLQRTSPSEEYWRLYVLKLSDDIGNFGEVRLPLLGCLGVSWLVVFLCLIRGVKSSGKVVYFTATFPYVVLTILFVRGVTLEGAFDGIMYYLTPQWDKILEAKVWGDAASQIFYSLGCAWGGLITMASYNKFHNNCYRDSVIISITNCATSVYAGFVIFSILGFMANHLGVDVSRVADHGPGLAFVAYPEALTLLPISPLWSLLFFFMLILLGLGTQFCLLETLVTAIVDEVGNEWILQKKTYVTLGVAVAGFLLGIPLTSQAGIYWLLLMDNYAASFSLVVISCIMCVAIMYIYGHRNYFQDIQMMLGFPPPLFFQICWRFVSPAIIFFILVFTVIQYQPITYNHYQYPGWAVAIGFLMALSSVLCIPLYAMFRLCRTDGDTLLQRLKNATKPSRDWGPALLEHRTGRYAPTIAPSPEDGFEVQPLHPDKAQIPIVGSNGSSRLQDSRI
In short: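 IC50 values were derived by four-parameter logistic fitting of counts. The 2× compound solutions were made by 1:100 dilution into HBSS of DMSO serial dilutions.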

Row | IC50 [nM] | Compound
1 | 100 to 1000 | COc1c(C#N)ccc(OC(C)C(F)(F)F)c1C(=O)N1CC(c2cncc(C)c2)C1 (centres unmarked) [Example 111, 2-Methoxy-3-{[3-(5-methylpyridin-3-yl)azetidin-1-yl]carbonyl}-4-[(1,1,1-trifluoropropan-2-yl)oxy]benzonitrile]
2 | 100 to 1000 | COc1c(C#N)ccc(C2(F)CCOCC2)c1C(=O)N1CC(Oc2ccc(F)c(F)c2)C1 [Example 25, 3-{[3-(3,4-Difluorophenoxy)azetidin-1-yl]carbonyl}-4-(4-fluorooxan-4-yl)-2-methoxybenzonitrile]
3 | < 100 | COc1c(C#N)ccc(C2CC(F)(F)C2)c1C(=O)N1CC(c2ncc(C(F)(F)F)cc2Cl)C1 [Example 152, 3-{3-[3-Chloro-5-(trifluoromethyl)pyridin-2-yl]azetidine-1-carbonyl}-4-(3,3-difluorocyclobutyl)-2-methoxybenzonitrile]
4 | 100 to 1000 | COc1c(C#N)ccc(C2(F)CCOCC2)c1C(=O)N1CC(c2cccc(C(F)(F)F)c2)C1 [Example 23, 4-(4-Fluorooxan-4-yl)-2-methoxy-3-({3-[3-(trifluoromethyl)phenyl]azetidin-1-yl}carbonyl)benzonitrile]
5 | 100 to 1000 | COc1c(C#N)ccc(O[C@@H](C)C(F)(F)F)c1C(=O)N1CC(c2ccc(Cl)cc2)C1 [Example 32, 3-{[3-(4-Chlorophenyl)azetidin-1-yl]carbonyl}-2-methoxy-4-{[(2S)-1,1,1-trifluoropropan-2-yl]oxy}benzonitrile]
6 | < 100 | COc1c(S(C)(=O)=O)ccc(O[C@@H](C)C(F)(F)F)c1C(=O)N1CC(Oc2ccccc2)C1 [Example 194, 1-(3-Methanesulfonyl-2-methoxy-6-{[(2S)-1,1,1-trifluoropropan-2-yl]oxy}benzoyl)-3-phenoxyazetidine]
7 | 100 to 1000 | COc1c(C#N)ccc(OC(C)C(F)(F)F)c1C(=O)N1CC(O)(c2ccc(C(F)(F)F)cc2)C1 (centres unmarked) [Example 64, 3-({3-Hydroxy-3-[4-(trifluoromethyl)phenyl]azetidin-1-yl}carbonyl)-2-methoxy-4-[(1,1,1-trifluoropropan-2-yl)oxy]benzonitrile]
8 | < 100 | COc1c(C#N)ccc(O[C@@H](C)C(F)(F)F)c1C(=O)N1CC(c2ccc(C3CCOCC3)cc2)C1 [Example 158, 2-Methoxy-3-{3-[4-(oxan-4-yl)phenyl]azetidine-1-carbonyl}-4-{[(2S)-1,1,1-trifluoropropan-2-yl]oxy}benzonitrile]
9 | < 100 | COc1cc(C2CN(C(=O)c3c(O[C@@H](C)C(F)(F)F)ccc(C#N)c3OC)C2)ccc1C#N [Example 174, 3-{[3-(4-Cyano-3-methoxyphenyl)azetidin-1-yl]carbonyl}-2-methoxy-4-{[(2S)-1,1,1-trifluoropropan-2-yl]oxy}benzonitrile]
10 | 100 to 1000 | COc1c(C#N)ccc(O[C@@H](C)C(F)(F)F)c1C(=O)N1CC(c2ncc(C(F)(F)F)cc2F)C1 [Example 5, (S)-3-(3-(3-Fluoro-5-(trifluoromethyl)pyridin-2-yl)azetidine-1-carbonyl)-2-methoxy-4-((1,1,1-trifluoropropan-2-yl)oxy)benzonitrile]
11 | < 100 | COc1c(C#N)ccc(OC(C)C(F)(F)F)c1C(=O)N1CC(c2ccccn2)C1 (centres unmarked) [Example 93, 2-Methoxy-3-{[3-(pyridin-2-yl)azetidin-1-yl]carbonyl}-4-[(1,1,1-trifluoropropan-2-yl)oxy]benzonitrile]
12 | < 100 | COc1c(S(C)(=O)=O)ccc(O[C@@H](C)C(F)(F)F)c1C(=O)N1CC(c2cccc(F)c2Cl)C1 [Example 253, 3-(2-Chloro-3-fluorophenyl)-1-(3-methanesulfonyl-2-methoxy-6-{[(2S)-1,1,1-trifluoropropan-2-yl]oxy}benzoyl)azetidine]
13 | 100 to 1000 | COc1c(S(C)(=O)=O)ccc(O[C@@H](C)C(F)(F)F)c1C(=O)N1CC(Oc2ccc(F)c(F)c2)C1 [Example 195, 3-(3,4-Difluorophenoxy)-1-(3-methanesulfonyl-2-methoxy-6-{[(2S)-1,1,1-trifluoropropan-2-yl]oxy}benzoyl)azetidine]
14 | 100 to 1000 | COc1c(C#N)ccc(O[C@@H](C)C(F)(F)F)c1C(=O)N1CC(Oc2ccc(C(F)(F)F)cc2)C1 [Example 30, 2-Methoxy-3-({3-[4-(trifluoromethyl)phenoxy]azetidin-1-yl}carbonyl)-4-{[(2S)-1,1,1-trifluoropropan-2-yl]oxy}benzonitrile]
15 | 100 to 1000 | N#Cc1ccc(OCC(F)(F)F)c(C(=O)N2CC(c3ccc(C(F)(F)F)cc3)C2)c1Cl [Example 105, 2-Chloro-4-(2,2,2-trifluoroethoxy)-3-({3-[4-(trifluoromethyl)phenyl]azetidin-1-yl}carbonyl)benzonitrile]
16 | 1000 to 10000 | CC(Oc1ccc(C#N)c(Cl)c1C(=O)N1CC(c2ccc(F)c(F)c2)C1)C(F)(F)F (centres unmarked) [Example 81, 2-Chloro-3-{[3-(3,4-difluorophenyl)azetidin-1-yl]carbonyl}-4-[(1,1,1-trifluoropropan-2-yl)oxy]benzonitrile]
17 | 100 to 1000 | COc1c(C#N)ccc(C2(F)CCC2)c1C(=O)N1CC(c2ccc(C3CCOCC3)cn2)C1 [Example 162, 4-(1-Fluorocyclobutyl)-2-methoxy-3-{3-[5-(oxan-4-yl)pyridin-2-yl]azetidine-1-carbonyl}benzonitrile]
18 | 100 to 1000 | COc1c(S(C)(=O)=O)ccc(OCC(F)(F)F)c1C(=O)N1CC(Oc2ccc(F)cc2F)C1 [Example 227, 3-(2,4-Difluorophenoxy)-1-[3-methanesulfonyl-2-methoxy-6-(2,2,2-trifluoroethoxy)benzoyl]azetidine]
19 | < 100 | CCc1cc(C(F)(F)F)cnc1C1CN(C(=O)c2c(O[C@@H](C)C(F)(F)F)ccc(C#N)c2OC)C1 [Example 8, (S)-3-(3-(3-ethyl-5-(trifluoromethyl)pyridin-2-yl)azetidine-1-carbonyl)-2-methoxy-4-((1,1,1-trifluoropropan-2-yl)oxy)benzonitrile]
20 | 100 to 1000 | COc1c(C#N)ccc(O[C@@H](C)C(F)(F)F)c1C(=O)N1CC(Cc2ccc(C(F)(F)F)cc2)C1 [Example 181, 2-Methoxy-3-[(3-{[4-(trifluoromethyl)phenyl]methyl}azetidin-1-yl)carbonyl]-4-{[(2S)-1,1,1-trifluoropropan-2-yl]oxy}benzonitrile]
21 | < 100 | N#Cc1ccc(C2CN(C(=O)c3c(OCC(F)(F)F)ccc(C#N)c3Cl)C2)cc1 [Example 106, 2-Chloro-3-{[3-(4-cyanophenyl)azetidin-1-yl]carbonyl}-4-(2,2,2-trifluoroethoxy)benzonitrile]
22 | < 100 | C#Cc1cc(C(F)(F)F)cnc1C1CN(C(=O)c2c(O[C@@H](C)C(F)(F)F)ccc(S(C)(=O)=O)c2OC)C1 [Example 191, 3-Ethynyl-2-[1-(3-methanesulfonyl-2-methoxy-6-{[(2S)-1,1,1-trifluoropropan-2-yl]oxy}benzoyl)azetidin-3-yl]-5-(trifluoromethyl)pyridine]
23 | 100 to 1000 | CC(Oc1ccc(C#N)c(Cl)c1C(=O)N1CC(c2ccncc2)C1)C(F)(F)F (centres unmarked) [Example 72, 2-Chloro-3-{[3-(pyridin-4-yl)azetidin-1-yl]carbonyl}-4-[(1,1,1-trifluoropropan-2-yl)oxy]benzonitrile]
24 | < 100 | COc1c(C#N)ccc(OC(C)C(F)(F)F)c1C(=O)N1CC(c2cccc(C(F)(F)F)c2)C1 (centres unmarked) [Example 99, 2-Methoxy-3-({3-[3-(trifluoromethyl)phenyl]azetidin-1-yl}carbonyl)-4-[(1,1,1-trifluoropropan-2-yl)oxy]benzonitrile]
25 | 100 to 1000 | COc1c(C#N)ccc(OC(C)C(F)(F)F)c1C(=O)N1CC(c2ccc(C(F)(F)F)cn2)C1 (centres unmarked) [Example 36, 2-Methoxy-3-({3-[5-(trifluoromethyl)pyridin-2-yl]azetidin-1-yl}carbonyl)-4-[(1,1,1-trifluoropropan-2-yl)oxy]benzonitrile]
26 | < 100 | CCOc1c(C#N)ccc(C2CN(C(=O)c3c(O[C@@H](C)C(F)(F)F)ccc(C#N)c3OC)C2)c1Cl [Example 176, 3-Chloro-4-[1-(3-cyano-2-methoxy-6-{[(2S)-1,1,1-trifluoropropan-2-yl]oxy}benzoyl)azetidin-3-yl]-2-ethoxybenzonitrile]
27 | < 100 | COc1c(S(C)(=O)=O)ccc(O[C@@H](C)C(F)(F)F)c1C(=O)N1CC(c2cccc(Cl)c2F)C1 [Example 252, 3-(3-Chloro-2-fluorophenyl)-1-(3-methanesulfonyl-2-methoxy-6-{[(2S)-1,1,1-trifluoropropan-2-yl]oxy}benzoyl)azetidine]
28 | 100 to 1000 | CC(Oc1ccc(C#N)c(Cl)c1C(=O)N1CC(c2ccccn2)C1)C(F)(F)F (centres unmarked) [Example 88, 2-Chloro-3-{[3-(pyridin-2-yl)azetidin-1-yl]carbonyl}-4-[(1,1,1-trifluoropropan-2-yl)oxy]benzonitrile]
29 | < 100 | COc1c(C#N)ccc(O[C@@H](C)C(F)(F)F)c1C(=O)N1CC(Nc2ccc(C(F)(F)F)cn2)C1 [Example 2, (S)-2-Methoxy-3-(3-((5-(trifluoromethyl)pyridin-2-yl)amino)azetidine-1-carbonyl)-4-((1,1,1-trifluoropropan-2-yl)oxy)benzonitrile]
